Where no end group is shown, it is not given here.
What was measured:
[1] = Decomposition of the kinins within the organism; details: in vivo
Source text: This is unexpected and surprising because the phenothiazines were known heretofore only as substances having an anti-depressive effect. This fact could cause one to conclude, however, that they could affect certain oligopeptides which influence the metabolism and would indirectly, i.e., by inhibiting the decomposition of the kinins, improve the glucose assimilation of the tissue.

spermatozoa = details: cited from earlier work
resting forearm = experiment: Resting forearm test, 10 milliliter injection into the artery of the arm; assay type: in vivo, human; details: fraction of 1μ gram in 10 milliliter of 10% glucose solution injected into the artery of the arm, versus kinin-free solution
Source text: This illustrates the improved glucose absorption into the tissue of the arm and the muscular system of the hand when the solution of the present invention is employed. Since the effect of this decrease in the glucose level of the blood by the kinin admixture occurs so quickly, it may be assumed that this is caused not by an intensification of the decomposition of the glucose or the metabolism within the cell but by a more rapid penetration of the muscular cell.

| Compound | decomposition of the kinins within the organism [1] | mobility of the spermatozoa (spermatozoa) | glucose content in the blood flowing through the vein of the arm (resting forearm) |
| --- | --- | --- | --- |
| CN(C)CCCN1c2ccccc2Sc2ccc(Cl)cc21 [2-chloro-10-(3-dimethylamino-propyl)-phenothiazine] | inhibited significantly |  |  |
| kallidin: decapeptide kinin differing from Brady kinin only by a lysine residue at the amino end (KRPPGFSPFR; Lysyl-bradykinin; UniProt P01042 380-389, looked up) |  | further the mobility of the spermatozoa |  |
| RPPGFSPFR [Brady kinin, (NH2) arginine - proline - proline - glycine - phenylalanine - serine - proline - phenylalanine - arginine (COOH)] |  | further the mobility of the spermatozoa | pronounced decrease |

— patent US4152425A, “Glucose containing infusion solution” (THERA Gesellschaft fur Patentverwertung mbH, priority 1976, dated 1979)
